For assay [1], the target named is Myeloid Cell Leukemia 1 (Mcl-1) (Homo sapiens (Human), UniProt Q07820). The experiment in a line: Terbium labeled Mcl-1 HTRF binding assay (displacement of Cy5-labeled BIM BH3 peptide). The following applies: 25 pM Tb-Mcl-1, 8 nM Cy5 Bim peptide, Ki=IC50/(1+[L]/Kd), [L]=8 nM, Kd=10 nM, read-out: TB-MCL1 Ki. The protocol:
Terbium labeled Myeloid Cell Leukemia 1 (Mcl-1) homogeneous time-resolved fluorescence (HTRF) binding assay utilizing the BIM BH3 peptide (H2N-(C/Cy5Mal) WIAQELRRIGDEFN-OH) as the binding partner for Mcl-1.
This assay evaluated inhibition of the BH3 domain: Mcl-1 interaction by measuring the displacement of Cy5-labeled BIM BH3 peptide (H2N—(C/Cy5Mal) WIAQELRRIGDEFN-OH) in the HTRF assay format.
The following assay and stock buffers were prepared for use in the assay: (a) Stock buffer: 10 mM Tris-HCl, pH=7.5+150 mM NaCl, filtered, sterilized, and stored at 4° C.; and (b) 1× assay buffer, where the following ingredients were added fresh to stock buffer: 2 mM dithiothreitol (DTT), 0.0025% Tween-20, 0.1 mg/mL bovine serum albumin (BSA). The 1×Tb-Mcl-1+Cy5 Bim peptide solution was prepared by diluting the protein stock solution using the 1× assay buffer (b) to 25 pM Tb-Mcl-1 and 8 nM Cy5 Bim peptide.
Using the Acoustic ECHO, 100 nL of 100× test compound(s) were dispensed into individual wells of a white 384-well Perkin Elmer Proxiplate, for a final compound concentration of 1× and final DMSO concentration of 1%. Inhibitor control and neutral control (NC, 100 nL of 100% DMSO) were stamped into columns 23 and 24 of assay plate, respectively. Into each well of the plate was then dispensed 10 μL of the 1×Tb-Mcl-1+Cy5 Bim peptide solution. The plate was centrifuged with a cover plate at 1000 rpm for 1 minute, then incubated for 60 minutes at room temperature with plates covered. The TR-FRET signal was read on an BMG PHERAStar FSX MicroPlate Reader at room temperature using the HTRF optic module (HTRF: excitation: 337 nm, light source: laser, emission A: 665 nm, emission B: 620 nm, integration start: 60 μs, integration time: 400 pts).
The BMG PHERAStar FSX MicroPlate Reader was used to measure fluorescence intensity at two emission wavelengths—665 nm and 620 nm—and report relative fluorescence units (RFU) for both emissions, as well as a ratio of the emissions (665 nm/620 nm)*10,000. The RFU values were normalized to percent inhibition as follows:
% inhibition=(((NC−IC)−(compound−IC))/(NC−IC))*100
where IC (inhibitor control, low signal)=mean signal of 1×Tb-MC1-1+Cy5 Bim peptide+inhibitor control or 100% inhibition of Mcl-1; NC (neutral control, high signal)=mean signal 1×Tb-MC1-1+Cy5 Bim peptide with DMSO only or 0% inhibition
An 11-point dose response curve was generated to determine IC50 values (using GenData) based on the following equation:
Y=Bottom+(Top−Bottom)/(1+10^((log IC50−X)*HillSlope))
where Y=% inhibition in the presence of X inhibitor concentration; Top=100% inhibition derived from the IC (mean signal of Mcl-1+inhibitor control); Bottom=0% inhibition derived from the NC (mean signal of Mcl-1+DMSO); Hillslope=Hill coefficient; and IC50=concentration of compound with 50% inhibition in relation to top/neutral control (NC).
In this assay [L]=8 nM and Kd=10 nM
Representative compounds of the present invention were tested according to the procedure as described above, with results as listed in the Table below (n.d. means not determined).
For orientation: TR-FRET usually uses a lanthanide donor and a delayed reading to cut background.

The test system of assay [2] is MOLP-8 human multiple myeloma cell line. Put plainly: MOLP8 Caspase-Glo 3/7 apoptosis induction assay. The following applies: MOLP-8 cells, 2 hours incubation at 37° C., averaged values over all runs on all batches. The format is cell-based. From the text:
MCL-1 is a regulator of apoptosis and is highly over-expressed in tumor cells that escape cell death. The assay evaluates the cellular potency of small-molecule compounds targeting regulators of the apoptosis pathway, primarily MCL-1, Bfl-1, Bcl-2, and other proteins of the Bcl-2 family. Protein-protein inhibitors disrupting the interaction of anti-apoptotic regulators with BH3-domain proteins initiate apoptosis.
The Caspase-Glo® 3/7 Assay is a luminescent assay that measures caspase-3 and -7 activities in purified enzyme preparations or cultures of adherent or suspension cells. The assay provides a proluminescent caspase-3/7 substrate, which contains the tetrapeptide sequence DEVD. This substrate is cleaved to release aminoluciferin, a substrate of luciferase used in the production of light. Addition of the single Caspase-Glo® 3/7 Reagent in an “add-mix-measure” format results in cell lysis, followed by caspase cleavage of the substrate and generation of a “glow-type” luminescent signal.
This assay uses the MOLP-8 human multiple myeloma cell line, which is sensitive to MCL-1 inhibition.
Materials: • Perkin Elmer Envision • Multidrop 384 and small volume dispensing cassettes • Centrifuge • Countess automated cell counter • Countess counting chamber slides • Assay plate: ProxiPlate-384 Plus, White 384-shallow well Microplate • Sealing tape: Topseal A plus • T175 culture flask
Cell cultures were maintained between 0.2 and 2.0×10^6 cells/mL. The cells were harvested by collection in 50 mL conical tubes. The cells were then pelleted at 500 g for 5 mins before removing supernatant and resuspension in fresh pre-warmed culture medium. The cells were counted and diluted as needed.
The assay reagent was prepared by transferring the buffer solution to the substrate vial and mixing. The solution may be stored for up to 1 week at 4° C. with negligible loss of signal.
Compounds were delivered in assay-ready plates (Proxiplate) and stored at −20° C.
Assays always include 1 reference compound plate containing reference compounds. The plates were spotted with 40 nL of compounds (0.5% DMSO final in cells; serial dilution; 30 μM highest conc. 1/3 dilution, 10 doses, duplicates). The compounds were used at room temperature and 4 μL of pre-warmed media was added to all wells except column 2 and 23. The negative control was prepared by adding 1% DMSO in media. The positive control was prepared by adding the appropriate positive control compound in final concentration of 60 μM in media. The plate was prepared by adding 4 μL negative control to column 23, 4 μL positive control to column 2 and 4 μL cell suspension to all wells in the plate. The plate with cells was then incubated at 37° C. for 2 hours. The assay signal reagent is the Caspase-Glo solution described above, and 8 μL was added to all wells. The plates were then sealed and measured after 30 minutes.
The activity of a test compound was calculated as percent change in apoptosis induction as follows: • LC=median of the Low Control values • =Central Reference in Screener • =DMSO • =0% • HC=Median of the High Control values • =Scale Reference in Screener • =30 μM of positive control • =100% apoptosis induction
% Effect (AC50)=100−((sample−LC)/(HC−LC))*100
% Control=(sample/HC)*100
% Control min=((sample−LC)/(HC−LC))*100

Chain of Myeloid Cell Leukemia 1 (Mcl-1) (Q07820 whole entry): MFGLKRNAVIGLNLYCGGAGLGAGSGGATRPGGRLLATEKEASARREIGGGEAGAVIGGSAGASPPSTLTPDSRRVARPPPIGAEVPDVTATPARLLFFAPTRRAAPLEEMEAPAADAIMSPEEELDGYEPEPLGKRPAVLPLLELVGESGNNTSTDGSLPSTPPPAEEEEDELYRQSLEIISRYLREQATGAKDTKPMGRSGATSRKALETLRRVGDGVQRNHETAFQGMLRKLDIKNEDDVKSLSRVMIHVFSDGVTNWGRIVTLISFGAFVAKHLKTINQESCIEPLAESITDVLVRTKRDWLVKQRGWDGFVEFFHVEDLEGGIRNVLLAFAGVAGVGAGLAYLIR

As for `C=CC1OCc2cc(n(C)n2)CCc2cc(c3ccc(F)cc3c2)OCCCn2c(C(=O)O)c(C)c3c(c(Cl)ccc32)-c2c1nn(C)c2C` (single isomer, unassigned) [Compound 1], the Ki (usually the equilibrium dissociation constant of an inhibitor or competing ligand from its target) in assay [1] was found to be 0.059 nM. Further, half-maximal activity in assay [2] (AC50) was put at 101 nM. For the compound `C=CC1OCc2cc(n(C)n2)CCc2cc(c3ccc(F)cc3c2)OCCCn2c(C(=O)O)c(C)c3c(c(Cl)ccc32)-c2c1nn(C)c2C` (single isomer, unassigned) [Compound 2], the Ki in assay [1] amounted to 0.024 nM. For the same compound, the AC50 (as a rule, the midpoint of the concentration-response curve, whichever way the signal moves) in assay [2] was 19.5 nM. For `COCCC1OCc2cc(n(C)n2)CCc2cc(c3ccc(F)cc3c2)OCCCn2c(C(=O)O)c(C)c3c(c(Cl)ccc32)-c2c1nn(C)c2C` (single isomer, unassigned) [Compound 3], the inhibitory constant (Ki) in assay [1] was found to be 0.039 nM. In assay [2], this compound displayed an AC50 of 154 nM. The corresponding values for `COCCC1OCc2cc(n(C)n2)CCc2cc(c3ccc(F)cc3c2)OCCCn2c(C(=O)O)c(C)c3c(c(Cl)ccc32)-c2c1nn(C)c2C` (single isomer, unassigned) [Compound 4] are 0.009 nM and 28.4 nM. For the compound `COCCOCCC1OCc2cc(n(C)n2)CCc2cc(c3ccc(F)cc3c2)OCCCn2c(C(=O)O)c(C)c3c(c(Cl)ccc32)-c2c1nn(C)c2C` (single isomer, unassigned) [Compound 5], in assay [1], the Ki stood at 0.011 nM. In assay [2] (Homo sapiens, MOLP-8, 2 h), this compound showed an AC50 of 22.6 nM. The corresponding values for `Cc1c(C(=O)O)n2c3ccc(Cl)c(c13)-c1c(nn(C)c1C)C(CCN1CCOCC1)OCc1cc(n(C)n1)CCc1cc(c3ccc(F)cc3c1)OCCC2` (single isomer, unassigned) [Compound 7] are 0.011 nM and 149 nM. The corresponding values for `Cc1c(C(=O)O)n2c3ccc(Cl)c(c13)-c1c(nn(C)c1C)C(CCN1CCN(C)CC1)OCc1cc(n(C)n1)CCc1cc(c3ccc(F)cc3c1)OCCC2` (single isomer, unassigned) [Compound 8] are 0.013 nM and 1160 nM. The corresponding values for `CCOCCC1OCc2cc(n(C)n2)CCc2cc(c3ccc(F)cc3c2)OCCCn2c(C(=O)O)c(C)c3c(c(Cl)ccc32)-c2c1nn(C)c2C` (single isomer, unassigned) [Compound 9] are 0.009 nM and 43.6 nM. `Cc1c(C(=O)O)n2c3ccc(Cl)c(c13)-c1c(nn(C)c1C)C(CCCO)OCc1cc(n(C)n1)CCc1cc(c3ccc(F)cc3c1)OCCC2` (single isomer, unassigned) [Compound 10]: the Ki in assay [1] was 0.028 nM. Further, the AC50 in assay [2] came out at 1060 nM. As for `Cc1c(C(=O)O)n2c3ccc(Cl)c(c13)-c1c(nn(C)c1C)C(CCCO)OCc1cc(n(C)n1)CCc1cc(c3ccc(F)cc3c1)OCCC2` (single isomer, unassigned) [Compound 11], the Ki in assay [1] is 0.01 nM. In assay [2], this compound came in with an AC50 of 303 nM. The corresponding values for `COCCCC1OCc2cc(n(C)n2)CCc2cc(c3ccc(F)cc3c2)OCCCn2c(C(=O)O)c(C)c3c(c(Cl)ccc32)-c2c1nn(C)c2C` (single isomer, unassigned) [Compound 12] are 0.015 nM and 57.8 nM. For `Cc1c(C(=O)O)n2c3ccc(Cl)c(c13)-c1c(nn(C)c1C)C(CN1CCOCC1)OCc1cc(n(C)n1)CCc1cc(c3ccc(F)cc3c1)OCCC2` (single isomer, unassigned) [Compound 13], in assay [1], the Ki worked out at 0.058 nM. The same compound showed an AC50 in assay [2] (Homo sapiens, MOLP-8, 2 h) of 1370 nM. The corresponding values for `COCCOCC1OCc2cc(n(C)n2)CCc2cc(c3ccc(F)cc3c2)OCCCn2c(C(=O)O)c(C)c3c(c(Cl)ccc32)-c2c1nn(C)c2C` (single isomer, unassigned) [Compound 14] are 0.018 nM and 205 nM. Regarding `COCC1OCc2cc(n(C)n2)CCc2cc(c3ccc(F)cc3c2)OCCCn2c(C(=O)O)c(C)c3c(c(Cl)ccc32)-c2c1nn(C)c2C` (single isomer, unassigned) [Compound 15], the Ki in assay [1] stood at 0.048 nM. This compound gave an AC50 in assay [2] of 66.1 nM.

`COCC1OCc2cc(n(C)n2)CCc2cc(c3ccc(F)cc3c2)OCCCn2c(C(=O)O)c(C)c3c(c(Cl)ccc32)-c2c1nn(C)c2C` (single isomer, unassigned) [Compound 16]: the Ki in assay [1] amounted to 0.104 nM. For the same compound, the AC50 in assay [2] amounted to 230 nM.

On to `Cc1c(C(=O)O)n2c3ccc(Cl)c(c13)-c1c(nn(C)c1C)C(C)OCc1cc(n(C)n1)CCc1cc(c3ccc(F)cc3c1)OCCC2` (single isomer, unassigned) [Compound 17], for which the Ki in assay [1] worked out at 0.042 nM. In assay [2], this compound returned an AC50 of 129 nM. The corresponding values for `Cc1c(C(=O)O)n2c3ccc(Cl)c(c13)-c1c(nn(C)c1C)C(C)OCc1cc(n(C)n1)CCc1cc(c3ccc(F)cc3c1)OCCC2` (single isomer, unassigned) [Compound 18] are 0.01 nM and 35.4 nM.

In turn, `Cc1nn2c3c1-c1c(Cl)ccc4c1c(C)c(C(=O)O)n4CCCOc1cc(cc4cc(F)ccc14)CCc1cc(nn1C)CCC3OCC2` (centres unmarked) [Compound 27] came in with an AC50 in assay [2] of 8.5 nM.

Take `Cc1nn2c3c1-c1c(Cl)ccc4c1c(C)c(C(=O)O)n4CCCOc1cc(cc4cc(F)ccc14)CCc1cc(nn1C)CCC3OCC2` (centres unmarked) [Compound 28]: the concentration at half-maximal activity (AC50) in assay [2] is above 30 nM. The same measure, in the same setting: the same measure for `Cc1nn2c3c1-c1c(Cl)ccc4c1c(C)c(C(=O)O)n4CCCOc1cc(cc4cc(F)ccc14)CCc1cc(nn1C)CCC3OCC2` (centres unmarked) [Compound 30]: 52.8 nM. Turning to `COCCn1nc2cc1CCc1cc(c3ccc(F)cc3c1)OCCCn1c(C(=O)O)c(C)c3c(c(Cl)ccc31)-c1c(C)nn3c1C(CC2)OCC3` (centres unmarked) [Compound 31], half-maximal activity in assay [2] (Homo sapiens, MOLP-8, 2 h) (AC50) was put at 48.6 nM.
